The results in this text go back to patent US6946465B2, “Immunosuppressive effects of pteridine derivatives” (4 AZA Bioscience NV, priority 1999, dated 2005).

In general, IC50 refers to the concentration that inhibits the measured activity by half.

Assay type in all cases: cell-based, human
Assay [1] concerns highly purified T cells stimulated by anti-CD28 mAb. The experiment in a line: CD28 assay: T-cell proliferation stimulated by anti-CD28 mAb + PMA (BrdU). The note with it: Table 1; anti-CD28 mAb + PMA 0.5 ng/ml, 48 h. The source says:
(§1) Various models may be used for testing an immunosuppressive effect. In vivo, for example, different transplantation models are available. They are strongly influenced by different immunogenicities, depending on the donor and recipient species used and depending on the nature of the transplanted organ. The survival time of transplanted organs can thus be used to measure the suppression of the immune response. In vitro, the most used models are lymphocyte activation tests. Usually activation is measured via lymphocyte proliferation. Inhibition of proliferation thus always means immunosuppression under the experimental conditions applied. There exist different stimuli for lymphocyte activation: • a) co-culture of lymphocytes of […] (mixed lymphocyte reaction, hereinafter referred as MLR) in a so-called mixed lymphocyte culture test: lymphocytes expressing different minor and major antigens of the HLA-DR type (=alloantigens) activate each other non-specifically. • b) a CD3 assay here there is an activation of the T-lymphocytes via an exogenously added antibody (OKT3).
(§2) All reagents were dissolved in 0.5 ml dimethylsulfoxide (hereinafter referred as DMSO) and further diluted in culture medium before use for the following in vitro experiments. The commercially available culture medium consisted of RPMI-1640+10% foetal calf serum (FCS).
(§3) T cells were purified by removing non-T cells. Briefly, monocytes were removed by cold agglutination. The resulting lymphoid cells were further purified by a cell enrichment immunocolumn [Cellect Human T commercially available from Biotex, Edmonton, Alberta, Canada)] by a process of negative selection.
(§4) Highly purified T cells (10^6/ml) were stimulated by immobilized anti-CD3 or anti-CD28 monoclonal antibodies (hereinafter referred as mAb) in the presence of PMA. Anti-CD3 mAb (available from CLB, Amsterdam, Netherlands) were fixed on the 96-microwell plates by incubating the wells with 50 μl of mAb solution (1/800 dilution in culture medium). For anti-CD28 mAb (available from CLB, Amsterdam, Netherlands) 50 μl (1/650 dilution in culture medium) was added directly to the wells. Further, a 20 μl phorbol myristate acetate (hereinafter referred as PMA (commercially available from Sigma, St. Louis, Mo., USA) solution (final concentration: 0.5 ng/ml) was added. Subsequently, 20 μl of a compound described in some of the previous examples were added by serial dilution in triplicate wells. Finally 100 μl of the T-cell suspension (10^6/ml) was added. After 48-hour incubation at 37° C. in 5% CO2 20 μl of a bromo-deuridine (hereinafter referred as BrdU) 100 μM solution (commercially available as Cell Proliferation Elisa from Boehringer-Mannheim Belgium) was added to each well. After a further overnight incubation, T-cell proliferation was measured using a colorimetric immunoassay for qualification of cell proliferation based on the incorporation of BrdU during DNA synthesis. Optical density (hereinafter referred as OD) was measured by a Behring EL311 plate reader at 450 nm (reference wavelength: 690 nm). Inhibition of proliferation by a compound (drug) described in some of the previous examples was counted using the formula: [formula]

Assay [2] has as its system highly purified T cells stimulated by immobilized anti-CD3 mAb. Briefly: CD3 assay: T-cell proliferation stimulated by anti-CD3 mAb + PMA (BrdU). The settings on record: Table 1; anti-CD3 mAb + PMA 0.5 ng/ml, 48 h; read-out: CD 3 IC50.
Excerpt: as §1, §2, §3, §4

Assay [3] concerns peripheral blood mononuclear cells (PBMC) with allogeneic PBMC or RPMI1788 stimulator cells. The experiment in a line: Mixed lymphocyte reaction (MLR) test, [3H]-thymidine incorporation. The settings on record: Table 1; 5 days incubation + 16 h thymidine.
Excerpt: as §1, §2
Peripheral blood mononuclear cells (hereinafter referred as PBMC) were isolated from heparinized peripheral blood by density gradient centrifugation over Lymphoprep (Nycomed, Maorstua, Norway). Allogeneic PBMC or Eppstein-Barr Virus-transformed human B cells [commercially available under the trade name RPM11788 (ATCC name CCL156)] which strongly express B7-1 and B7-2 antigens were used as stimulator cells after irradiation with 30 Gy. MLR was performed in triplicate wells. After 5 days incubation at 37° C., 1 μCi [^3 H]-thymidine was added to each cup. After a further 16 hours incubation, cells were harvested and counted in a β-counter. Inhibition of proliferation by a compound (drug) described in some of the previous examples was counted using the formula: [formula] wherein cpm is the thymidine count per minute. Assays for CD3 and CD 28
Background: Uptake of a labelled nucleoside into DNA is a usual measure of proliferation.

On to `COC(=O)C=C(OC)c1cnc2c(n1)c(=O)n(C)c(=O)n2C` [Example 16], for which the IC50 in assay [1] came to 80 µM; in assay [2], 80 µM; in assay [3], 70 µM.

As to `CC(C)CNc1nc2c(nc1C#N)c(=O)n(C)c(=O)n2C` [Example 52, 6-cyano-7-isobutylamino-1,3-dimethyl-lumazine], the IC50 in assay [1] turned out to be 80 µM; in assay [2], 116 µM; in assay [3], 116 µM.

On to `CC(=O)Nc1nc2c(nc1C#N)c(=O)n(C)c(=O)n2C` [Example 54, 6-cyano-7-acetenylamino-1,3-dimethyl-lumazine], for which the IC50 in assay [1] came out at 80 µM; in assay [2], 104 µM; in assay [3], 140 µM.

With `CCSC(C[N+](=O)[O-])c1cnc2c(n1)c(=O)n(C)c(=O)n2C` (stereo not drawn) [Example 19, 6-[(1-ethylthio-2-nitro)ethyl]-1,3-dimethyl-lumazine], the 50% inhibitory concentration (IC50) in assay [1] amounted to 0.09 µM; in assay [2], 0.35 µM; in assay [3] it was 4.5 µM.

With `Cn1c(=O)c2nc(C=O)c(NC3CC3)nc2n(C)c1=O` [Example 70, 6-formyl-7-cyclopropylamino-1,3-dimethyl-lumazine], the IC50 in assay [1] is 116 µM; in assay [2] it was 80 µM; in assay [3], 80 µM.

Turning to `Cn1c(=O)c2nc(C#N)c(NCc3ccccc3)nc2n(C)c1=O` [Example 53, 6-cyano-7-benzylamino-1,3-dimethyl-lumazine], the IC50 was determined as 104 µM in assay [1], 140 µM in assay [2] and 140 µM in assay [3].

`Cn1c(=O)c2nc(C#N)c(Cl)nc2n(C)c1=O` [Example 47, 6-cyano-7-chloro-1,3-dimethyl-lumazine]: the results for the IC50 in assay [1], in assay [2] and in assay [3] were 12 µM, 15 µM and 104 µM, respectively.
